Reference: patent US10806785B2, “Immunomodulator compounds and methods of use” (Incyte Corporation, priority 2016, dated 2020)

Target: PD-1/PD-L1 (Homo sapiens (Human), UniProt Q9NZQ7)
Test: PD-1/PD-L1 binding assay (HTRF)
Procedure, shortened: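 Fc-tagged human PD-1 (25-167) and His-tagged PD-L1 (19-238), listed as […] and 10 nM final, preincubated 40 min with inhibitors in PBS pH 7.4, 0.05% Tween-20, 0.1% BSA, 1% DMSO, 25 °C. Eu anti-IgG/APC anti-His added, 60 min, 665/620 nm HTRF ratio; IC50 fitted from percent control activity.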

Chain of PD-1/PD-L1 (Q9NZQ7 19-238): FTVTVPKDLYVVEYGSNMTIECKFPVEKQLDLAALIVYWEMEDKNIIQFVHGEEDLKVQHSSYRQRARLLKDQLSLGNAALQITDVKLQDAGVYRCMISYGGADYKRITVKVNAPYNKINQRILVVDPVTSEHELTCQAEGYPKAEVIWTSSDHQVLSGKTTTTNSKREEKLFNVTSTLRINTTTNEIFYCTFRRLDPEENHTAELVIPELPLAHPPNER

## CN1CCc2c(nc(C(=O)Nc3cccc(-c4cccc(NC(=O)c5nc6c(n5C)CCN(C[C@H]5CC[C@H](C(=O)O)CC5)C6)c4Cl)c3Cl)n2C)C1 [Example 60, trans-4-((2-(2,2′-dichloro-3′-(1,5-dimethyl-4,5,6,7-tetrahydro-1H-imidazo[4,5-c]pyridine-2-carboxamido)biphenyl-3-ylcarbamoyl)-1-methyl-6,7-dihydro-1H-imidazo[4,5-c]pyridin-5(4H)-yl)methyl)cyclohexane-1-carboxylic acid]
  IC50: ≤ 10 nM

## Cn1c(C(=O)Nc2cccc(-c3cccc(NC(=O)c4nc5c(n4C)CCN(C[C@H]4CC[C@H](C(=O)O)CC4)C5)c3Cl)c2Cl)nc2c1CCNC2 [Example 61, trans-4-((2-(2,2′-dichloro-3′-(1-methyl-4,5,6,7-tetrahydro-1H-imidazo[4,5-c]pyridine-2-carboxamido)biphenyl-3-ylcarbamoyl)-1-methyl-6,7-dihydro-1H-imidazo[4,5-c]pyridin-5(4H)-yl)methyl)cyclohexane-1-carboxylic acid]
  IC50: ≤ 10 nM

## CCN1CCc2c(nc(C(=O)Nc3cccc(-c4cccc(NC(=O)c5nc6c(n5C)CCN(C[C@H]5CC[C@H](C(=O)O)CC5)C6)c4Cl)c3Cl)n2C)C1 [Example 62, trans-4-((2-(2,2′-dichloro-3′-(5-ethyl-1-methyl-4,5,6,7-tetrahydro-1H-imidazo[4,5-c]pyridine-2-carboxamido)biphenyl-3-ylcarbamoyl)-1-methyl-6,7-dihydro-1H-imidazo[4,5-c]pyridin-5(4H)-yl)methyl)cyclohexane-1-carboxylic acid]
  IC50: ≤ 10 nM

## Cn1c(C(=O)Nc2cccc(-c3cccc(NC(=O)c4nc5c(n4C)CCN(C[C@H]4CC[C@H](C(=O)O)CC4)C5)c3Cl)c2Cl)nc2c1CCN(CC1CC1)C2 [Example 63, trans-4-((2-(2,2′-dichloro-3′-(5-(cyclopropylmethyl)-1-methyl-4,5,6,7-tetrahydro-1H-imidazo[4,5-c]pyridine-2-carboxamido)biphenyl-3-ylcarbamoyl)-1-methyl-6,7-dihydro-1H-imidazo[4,5-c]pyridin-5(4H)-yl)methyl)cyclohexane-1-carboxylic acid]
  IC50: ≤ 10 nM

## Cn1c(C(=O)Nc2cccc(-c3cccc(NC(=O)c4nc5c(n4C)CCN(C4CCOCC4)C5)c3Cl)c2Cl)nc2c1CCN(C[C@H]1CC[C@H](C(=O)O)CC1)C2 [Example 64, trans-4-((2-(2,2′-dichloro-3′-(1-methyl-5-(tetrahydro-2H-pyran-4-yl)-4,5,6,7-tetrahydro-1H-imidazo[4,5-c]pyridine-2-carboxamido)biphenyl-3-ylcarbamoyl)-1-methyl-6,7-dihydro-1H-imidazo[4,5-c]pyridin-5(4H)-yl)methyl)cyclohexane-1-carboxylic acid]
  IC50: ≤ 10 nM

## Cn1c(C(=O)Nc2cccc(-c3cccc(NC(=O)c4nc5c(n4C)CCN(C[C@H]4CC[C@H](C(=O)O)CC4)C5)c3Cl)c2Cl)nc2c1CCN(CCO)C2 [Example 65, trans-4-((2-((2,2′-dichloro-3′-(5-(2-hydroxyethyl)-1-methyl-4,5,6,7-tetrahydro-1H-imidazo[4,5-c]pyridine-2-carboxamido)-[1,1′-biphenyl]-3-yl)carbamoyl)-1-methyl-1,4,6,7-tetrahydro-5H-imidazo[4,5-c]pyridin-5-yl)methyl)cyclohexane-1-carboxylic acid]
  IC50: ≤ 10 nM

## C[C@H](O)CN1CCc2c(nc(C(=O)Nc3cccc(-c4cccc(NC(=O)c5nc6c(n5C)CCN(C[C@H]5CC[C@H](C(=O)O)CC5)C6)c4Cl)c3Cl)n2C)C1 [Example 66, trans-4-((2-((2,2′-dichloro-3′-(5-((S)-2-hydroxypropyl)-1-methyl-4,5,6,7-tetrahydro-1H-imidazo[4,5-c]pyridine-2-carboxamido)-[1,1′-biphenyl]-3-yl)carbamoyl)-1-methyl-1,4,6,7-tetrahydro-5H-imidazo[4,5-c]pyridin-5-yl)methyl)cyclohexane-1-carboxylic acid]
  IC50: ≤ 10 nM
